Assay results reported in patent publication US8268831B2, “Compounds derived from 2-(3-methylenedioxy)-benzoyl indol” (Biolab Sanus Farmaceutica Ltda., priority 2008, dated 2012).
pEC50: −log10 of the molar value.

What was measured:
isolated aorta of rat = assay: Relaxing effect on isolated rat aorta rings pre-contracted with phenylephrine; format: cell-based; settings: rat aorta with endothelium previously treated with phenylephrine; cumulative concentrations 1 to 1000 nM; FIG. 2
Description: Experiments used male Wistar rats weighing between 300-350 g. The animals were maintained in an environment with humidity (60-80%) and controlled temperature (22±2° C.), with light-dark cycles of 12 hours and free access to water and rations. Before experiments, the animals were acclimatized in the laboratory for a minimum period of 1 hour. Each animal was used only one time in each test.
The animals were sacrificed by deepening anesthesia with ketamine and xylazine hydrochloride, followed by exsanguination made by section of the carotid artery. After opening of the thoracic cavity, the aorta was carefully removed and transferred to a Petri dish containing Krebs-Henseleit solution, with the following composition (mM): NaCI-118; KCl 4.7; CaCl2 2.5; MgSO4 1.2; KH2PO4 0.9; NaHCO3 25; glucose 11. Afterwards, adipose and adjacent connective tissues were carefully removed. […]
After a period of equilibrium of 60 minutes, the preparations were treated with phenylephrine (0.3-1 μM), and after stabilization of the tonic contraction of the preparation, the integrity of the vascular endothelium was evaluated by the capacity of acetylcholine (ACh, 1 μM) to induce relaxation in the preparations. […]

[1] = tested on: isolated cavernous body of rabbit; assay: Relaxing effect on isolated cavernous body of rabbit pre-contracted with phenylephrine; format: cell-based; settings: cumulative concentrations 1 to 1000 nM
Description: Experiments used male rabbits weighing between 3.5 and 4.0 Kg. The animals were anesthetized with sodium pentobarbital (40 mg/kg, i.p), and the abdominal cavity opened for the withdrawal of the penis from the animals. The tissues were placed in a Petri dish containing Krebs-Henseleit solution pH 7.4 (NaCl 118 mM; KCl 4.8 mM; CaCl2 2.5 mM; MgSO4 1.2 mM; KH2PO4 0.9 mM; NaHCO3 25 mM; glucose 11 mM) warmed to 37° C., and cartilage and adherent tissue were carefully removed. In general 3 segments containing approximately 2 cm of length of cavernous body were obtained from each animal. The preparations were mounted on glass reservoirs containing 5 ml of Krebs solution containing indomethacin (5.6 μM) at 37° C., continuously aerated with a mixture of 95% of O2 and 5% of CO2.
The preparations were submitted to a period of equilibrium of at least 90 minutes, under tension of 2 g, during which the bath solution was renewed each 15 minutes. Changes of isometric tension were registered using a TRI-201 force transducer (Letica Scientific Instruments, Spain) connected a polygraph.
After the period of stabilization, the preparations were treated with single concentrations of […] of phenylephrine. […]
The relaxation responses caused by the compounds were calculated in relation to the contractile response of phenylephrine, which is considered as 100% of contraction. […]

[2] = tested on: spontaneous erections in male rats; assay: Test of sexual behavior in rats (spontaneous erections) after oral administration; format: in vivo, rat; settings: 10 mg/kg oral, observed for 1 hour in presence of females, significantly increased compared to vehicle, average±SEM, FIG. 3
Description: The utilized protocol was adapted from literature articles (Hosseinzadeh et al., 2008; Rizzo et al., 2008). Two days before execution of experiments, couples of males and females were isolated in plastic boxes. In this period, males were housed for 1 hour per day in reinforced metal cages, rectangular with dimensions of 40×23×33 cm. On the day of the test, the male rats were treated with 10 mg/kg (oral) of compound BL-122 or only with vehicle (saline containing 10% of DMSO). Immediately afterwards, animals were placed in observation cages. The rats that received treatment by oral route were fasted for 4 hours before the test. One and a half (1.5) hours after the oral treatment, the females were placed with the respective males in the cages.

- pEC50 ([1]; Oryctolagus cuniculus, cavernous body of rabbit previously contracted with phenylephrine, value with interval in brackets): 7.80
SMILES: CN1CC(=O)N[C@H](Cc2c(C(=O)c3ccc4c(c3)OCO4)[nH]c3ccccc23)C1=O [Compound BL-122, (R)-3-((2-(benzo[d][1,3]dioxol-5-carbonyl)-1H-indol-3-yl)methyl)-1-methylpiperazine-2,5-dione]
- relaxation of rat aorta preparations (isolated aorta of rat): promoted relaxation
- maximum relaxation (efficacy) ([1]; cavernous body of rabbit previously contracted with phenylephrine (contraction = 100%), average±SEM): 63.1±7.8%
- spontaneous erections [2]: about 6.4±2.0
